Assay results from US20210008095A1, “METHODS FOR TREATING MUSCULAR DYSTROPHY” (Sarepta Therapeutics, Inc., priority 2015, published 2021).
“And” between values parts separate entries of the source, which are not always exact repeats. Equal entries are not always repeated. “Also recorded” adds a separate entry of the source. Marks after values point to notes of the source that are not given here.

What was measured:
Type in all cases: in vivo, human
[1] = tested on: patients with Duchenne muscular dystrophy (DMD) amenable to exon 51 skipping; assay: 6 Minute Walk Test (6MWT), Study 201/202; set-up: key to Year 4 6MWT: 6MWT distance walked, in meters; details: for difference in mean change from baseline in 6MWT distance vs matched external control cohort: 12 treated vs 13 controls; for Year 4 6MWT/6MWD / Year 3 6MWT/6MWD: individual subjects; for Year 4 6MWT Difference in Mean Change: vs external matched control
Procedure: For the eteplirsen treated cohort, eligible patients were between 7 and 13 years of age (inclusive), with out-of-frame deletions of the DMD gene that could be corrected by skipping exon 51. Patients were confirmed to have stable cardiac and pulmonary function and a stable dose of glucocorticoids for at least 24 weeks prior to enrollment. Only patients who could walk between 200 and 400 meters […] on the 6-Minute Walk Test (6MWT) at baseline were enrolled.
This 4 year trial was conducted in two phases: (1) treatment was double-blind through week 24 and (2) open-label thereafter. The primary endpoint was change in ambulation as measured by the 6-Minute Walk Test (6MWT).
Study 201 (Study no. 4658-us-201; ClinicalTrials.gov Identifier: NCT01396239) was a single-site, randomized, double-blind, placebo-controlled, multiple-dose efficacy, safety and tolerability trial of eteplirsen. Twelve patients with DMD were randomized to one of three groups: eteplirsen 30 mg/kg/week (Cohort 1); eteplirsen 50 mg/kg/week (Cohort 2); or placebo/delayed eteplirsen (Cohort 3). All patients received weekly intravenous eteplirsen or placebo/delayed eteplirsen dosing. Placebo-treated patients crossed over to weekly eteplirsen 30 (n=2) or 50 mg/kg (n=2) at week 25. Efficacy and safety were assessed at scheduled visits, and an independent Data Safety Monitoring Board ensured the welfare of all patients. All patients had bicep biopsies at baseline. Follow-up biopsies were performed in the opposite arm (biceps) at week 12 for the 50 mg/kg group and two placebo-treated patients and at week 24 for the 30 mg/kg group and two placebo-treated patients.
Patients continued weekly dosing with 30 or 50 mg/kg eteplirsen under Study 202 (Study no. 4658-us-202; ClinicalTrials.gov Identifier: NCT01540409) a long-term, open-label extension study. All efficacy assessments continued to be performed during Study 202, including a third biopsy (in the left deltoid muscle) in all patients at week 48. A voluntary fourth biopsy ( 11/12 patients) was performed at week 180. Monitoring of adverse events continued throughout the study.
To compare the results of the eteplirsen cohort to a matched external control cohort, the Italian Telethon (n=97) and Leuven Neuromuscular Research Center (NMRC) (n=89) registries were used to compile control data. These registries were chosen because the following data was available: longitudinal 6MWT data in exon 51 amenable patients, longitudinal 6MWT data up to 36 months, and genetic mutation data. There was also an equivalent standard of care, including steroids, in these registries. Patient data was selected based on the following factors: baseline 6MTW and steroid treatment, age of 7 years or older, and amenable to exon 51 skipping (FIG. 2)
(§1) The 6MWT was administered using the protocol established for patients with DMD by McDonald, et al. (Muscle Nerve, 2010; 42:966-74; Muscle Nerve, 2010; 41:500-10 herein incorporated by reference), except there was no use of the StepWatch actimetry device. Exploratory functional outcomes included the North Star Ambulatory Assessment, quantitative muscle testing, the 9-Hole Peg Test, pulmonary function testing (PFT), timed function tests, and assessment of quality of life.

[2] = tested on: patients with Duchenne muscular dystrophy (DMD) amenable to exon 51 skipping; assay: North Star Ambulatory Assessment (NSAA); set-up: key to Year 3 NSAA Score: sum of activity scores, each 2 = normal to 0 = unable independently
Text: Due to decreases in muscle function in patients with DMD, ambulation is often lost during disease progression. Ambulation can be measured through various methods, including the North Star Ambulatory Assessment (NSAA). The NSAA was developed by the Physiotherapy Assessment and Evaluation Group of the North Start Clinical Network to assess ambulant boys with DMD, and provides a list of activities that are scored from 2-0, with 2 being normal and 0 being “unable to achieve independently” (2006-2011 MDC/North Star Clinical Network). These activities range from standing for a minimum of 3 seconds to climbing up and down a box to running. In certain embodiments, treatment with eteplirsen may maintain, stabilize, increase, or improve ambulation, for example, as determined by the NSAA.
as §1

[3] = tested on: patients with Duchenne muscular dystrophy (DMD) amenable to exon 51 skipping; assay: Pulmonary function testing (MIP, MEP, FVC); details: baseline through Week 192
Text: In some embodiments, treatment with eteplirsen slows or reduces the progressive respiratory muscle dysfunction and/or failure in patients with DMD that would be expected without treatment. In some embodiments, treatment with eteplirsen stabilizes respiratory muscle function in patients with DMD. In one embodiment, treatment with eteplirsen may reduce or eliminate the need for ventilation assistance that would be expected without treatment. In one embodiment, measurements of respiratory function for tracking the course of the disease, as well as the evaluation of potential therapeutic interventions include Maximum inspiratory pressure (MIP), maximum expiratory pressure (MEP) and forced vital capacity (FVC). MIP and MEP measure the level of pressure a person can generate during inhalation and exhalation, respectively, and are sensitive measures of respiratory muscle strength. […]
as §1

Question: “RNA, [P-deoxy-P-(dimethylamino)](2′,3′-dideoxy-2′,3′-imino-2′,3′-seco)(2′a→5′)(C-m5U-C-C-A-A-C-A-m5U-C-A-A-G-G-A-A-G-A-m5U-G-G-C-A-m5U-m5U-m5U-C-m5U-A-G), 5′-[P-[4-[[2-[2-(2-hydroxyethoxy)ethoxy]ethoxy]carbonyl]-1-piperazinyl]-N,N-dimethylphosphonamidate] (antisense CTCCAACATCAAGGAAGATGGCATTTCTAG; all phosphorodiamidate morpholino (PMO); 5' piperazinyl triethylene glycol carbamate tail on phosphonamidate, further chemistry not fully specified) [eteplirsen]” was tested. Which “difference in mean change from baseline in 6MWT distance vs matched external control cohort” value ([1]; 4 years) did it give?
Answer: 162 m

Question: What about the “difference in mean change from baseline in 6MWT distance vs matched external control cohort” value ([1]; 36 months / 3 years) of the same substance?
Answer: 151 m

Question: And the “6MWT distance percent change from baseline” value ([1]; 42 months, all 12 treated patients, external control −74% at month 36)?
Answer: −42%

Question: What about the “6MWT distance percent change from baseline” value ([1]; 48 months, placebo-delayed patients excluded (n=8)) of the same substance?
Answer: −43%

Question: And the “Year 4 6MWT/6MWD” value ([1]; 216 weeks, dose group 30 mg/kg)?
Answer: 349 meters and 332 meters and 0 meters (2×)

Question: What about the “Year 4 6MWT/6MWD” value ([1]; 216 weeks, dose group 50 mg/kg) of the same substance?
Answer: 192 meters and 221 meters and 237 meters and 400 meters

Question: And the “Year 4 6MWT/6MWD” value ([1]; 216 weeks, dose group Placebo to 30 mg/kg)?
Answer: 197 meters and 55 meters

Question: And the “Year 4 6MWT/6MWD” value ([1]; 216 weeks, dose group Placebo to 50 mg/kg)?
Answer: 230 meters and 143 meters

Question: What about the “Year 4 6MWT” value ([1]; Table 5, individual ambulatory subjects (n=10)) of the same substance?
Answer: 192 and 197 and 230 and 332 and 221 and 55† and 400 and 349 and 237 and 143

Question: What about the “Year 4 6MWT Distance (m)” value ([1]; Table 6, individual ambulatory subjects (n=10)) of the same substance?
Answer: 55† m and 332 m and 230 m and 221 m and 400 m and 349 m and 192 m and 143 m and 237 m and 197 m

Question: What about the “Year 3 6MWT/6MWD” value ([1]; dose group 30 mg/kg) of the same substance?
Answer: 378 meters and 359 meters and 0 meters (2×)

Question: And the “Year 3 6MWT/6MWD” value ([1]; dose group 50 mg/kg)?
Answer: 324 meters and 355 meters and 298 meters and 483 meters

Question: And the “Year 3 6MWT/6MWD” value ([1]; dose group Placebo to 30 mg/kg)?
Answer: 312 meters and 100 meters

Question: What about the “Year 3 6MWT/6MWD” value ([1]; dose group Placebo to 50 mg/kg) of the same substance?
Answer: 301 meters and 247 meters

Question: What about the “walking distance over the study” value ([1]; over the duration of the study, FIG. 6) of the same substance?
Answer: maintained a stable walking distance

Question: And the “walking ability retained relative to baseline” value ([1]; several subjects including subject number 4, 216 weeks)?
Answer: greater than 50%

Question: What about the “change in 6MWT relative to baseline” value ([1]; subject number 15, 216 weeks) of the same substance?
Answer: lost one meter

Question: What about the “6MWT distance at year 4 in patients below the NSAA threshold at year 3” value ([1]; subjects 003 and 005, respectively) of the same substance?
Answer: 143 meters and 192 meters

Question: And the “Year 4 6MWT Difference in Mean Change” value ([1]; ANCOVA, Covariate: Baseline 6MWT)?
Answer: 150.3, p = 0.002

Question: And the “Year 4 6MWT Difference in Mean Change” value ([1]; ANCOVA, Covariates: Baseline 6MWT, Age)?
Answer: 156.1, p = 0.002

Question: And the “Year 4 6MWT Difference in Mean Change” value ([1]; ANCOVA, Rank transformed data)?
Answer: 8.7, p = 0.001

Question: And the “Year 4 6MWT Difference in Mean Change” value ([1]; MMRM, Covariate: Baseline 6MWT)?
Answer: 146.5, p = 0.003

Question: And the “Year 4 6MWT Difference in Mean Change” value ([1]; MMRM, Covariates: Baseline 6MWT, Age)?
Answer: 143.1, p = 0.004

Question: And the “Year 4 6MWT Difference in Mean Change” value ([1]; MMRM, Rank transformed data)?
Answer: 8.4, p = 0.004

Question: And the “patient ambulation between weeks 168 and 192” value ([1]; weeks 168 to 192 (42 to 48 months))?
Answer: patient ambulation stabilized; also recorded: stabilized patient ambulation

Question: And the “rate of decline in NSAA score” value ([2]; at 2 and 3 years following treatment, vs external control)?
Answer: slower rate of decline in NSAA score

Question: And the “difference in NSAA score compared to the external control group cohort” value ([2]; at 3 years)?
Answer: 2.6 points

Question: What about the “Year 3 NSAA Score” value ([2]; individual ambulatory subjects (n=10)) of the same substance?
Answer: 13 (3×) and 14 and 24 and 25 (2×) and 7 and 8 and 11

Question: And the “pulmonary function (MIP, MEP, FVC)” value [3]?
Answer: continued stabilization of pulmonary function; also recorded: either maintained or had only a slight decline in all of MIP, MEP, and FVC
